Assay [1] addresses T1, human lysosomal N-acetyl-β-hexosaminidase A (Homo sapiens, UniProt P06865).
T1 construct: endogenous in cells; host or cells: human skin fibroblasts (wild type), cell homogenate
Briefly: Human N-acetyl-β-hexosaminidase A activity in fibroblast homogenate (4-MU N-acetyl-β-glucosaminide-6-sulfate substrate). The format is biochemical. To be noted: normal human skin fibroblast homogenate, pH 4.4, 37 °C, 60 min; read-out: IC50 with human lysosomal N-acetyl-β-D-hexosaminidase A. From the text:
All cells used in this study were between the third and nineteenth passages.

Assay [2] has as its target T2, Streptomyces plicatus N-acetyl-β-hexosaminidase (SpHex) (Streptomyces plicatus, UniProt O85361).
T2 construct: made in house; host or cells: E. coli
T2 sequence (O85361 1-506): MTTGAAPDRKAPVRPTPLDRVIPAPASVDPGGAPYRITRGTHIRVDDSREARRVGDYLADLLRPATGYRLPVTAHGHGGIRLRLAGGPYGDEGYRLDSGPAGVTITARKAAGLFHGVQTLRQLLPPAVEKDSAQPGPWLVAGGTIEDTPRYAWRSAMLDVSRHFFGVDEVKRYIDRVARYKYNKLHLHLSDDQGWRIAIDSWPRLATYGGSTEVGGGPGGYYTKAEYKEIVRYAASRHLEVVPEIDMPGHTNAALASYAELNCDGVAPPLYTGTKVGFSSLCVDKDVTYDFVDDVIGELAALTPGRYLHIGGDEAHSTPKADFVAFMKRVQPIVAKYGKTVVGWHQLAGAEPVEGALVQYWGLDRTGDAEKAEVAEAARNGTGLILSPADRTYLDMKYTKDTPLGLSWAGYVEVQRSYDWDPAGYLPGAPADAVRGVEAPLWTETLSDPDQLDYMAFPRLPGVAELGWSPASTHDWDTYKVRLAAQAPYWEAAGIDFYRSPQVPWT
On the set-up: method as in PMID 11828466. The settings on record: with the same enzyme; read-out: Ki with SpHex (reference compound); cited from earlier work.

Assay [3] deals with T2, Streptomyces plicatus N-acetyl-β-hexosaminidase (SpHex). Put plainly: SpHex kinetic inhibition assay (4-nitrophenyl N-acetyl-β-D-glucosaminide substrate, competitive model). The format is biochemical. As to the method: Streptomyces plicatus N-acetyl-β-hexosaminidase, SpHex, was expressed and purified in E. coli as described previously. Kinetic studies were performed at 25 °C in the assay buffer (sodium phosphate (50 mM), sodium citrate (50 mM), NaCl (100 mM), BSA (2 mg/mL), pH = 6.0). The enzyme was incubated with different concentrations of the inhibitors for 2–5 min prior to the start of the reaction by addition of the substrate (4-nitrophenyl N-acetyl-β-D-glucosaminide) and the initial rates were measured by monitoring the increase in absorbance at 405 nm for three to five minutes using a microplate reader (Synergy H1, BioTek, VT, USA). Ki determinations were performed using two or three different substrate concentrations. For each one of these substrate concentrations a range of five to eight different inhibitor concentrations bracketing the ultimately determined Ki value were used. Dixon plots (1/rate vs [I]) were constructed to validate the use of a competitive inhibition model. The data were then fit to a competitive inhibition model using non-linear regression analysis with GraFit 7.0 (Erithacus Software, UK). Assays were done twice using enzyme concentrations of 0.3 nM and 0.03 nM respectively in order to check compliance with the assumptions of Michaelis Menten kinetics ([E] << [I]). In addition, for compound 25, the assays were done a third time with the concentration of enzyme lowered to 0.003 nM. In all cases, the Ki values were in good agreement.

Where two headings read alike, the source gives them in different places.

Drawing on PMC6017319, “Potent GH20 N-Acetyl-β-D-hexosaminidase Inhibitors: N-Substituted 3-acetamido-4-amino-5-hydroxymethyl-cyclopentanediols” (Molecules : A Journal of Synthetic Chemistry and Natural …, 2018), this text covers IC50 and Ki for five molecules.

T1 sequence (P06865 89-529): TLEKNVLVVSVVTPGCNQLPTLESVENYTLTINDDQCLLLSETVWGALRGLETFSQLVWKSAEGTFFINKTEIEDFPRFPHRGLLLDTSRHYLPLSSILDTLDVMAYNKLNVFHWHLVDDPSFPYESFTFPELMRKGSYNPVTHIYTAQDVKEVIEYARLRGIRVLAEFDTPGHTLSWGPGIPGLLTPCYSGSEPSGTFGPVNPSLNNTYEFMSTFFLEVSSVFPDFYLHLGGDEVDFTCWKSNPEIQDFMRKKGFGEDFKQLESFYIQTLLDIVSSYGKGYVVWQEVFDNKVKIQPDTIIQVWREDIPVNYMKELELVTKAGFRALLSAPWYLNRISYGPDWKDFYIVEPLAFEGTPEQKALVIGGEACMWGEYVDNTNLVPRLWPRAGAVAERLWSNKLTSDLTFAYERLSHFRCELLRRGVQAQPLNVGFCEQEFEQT
T1 sequence (P07686 122-311 partner limits assumed): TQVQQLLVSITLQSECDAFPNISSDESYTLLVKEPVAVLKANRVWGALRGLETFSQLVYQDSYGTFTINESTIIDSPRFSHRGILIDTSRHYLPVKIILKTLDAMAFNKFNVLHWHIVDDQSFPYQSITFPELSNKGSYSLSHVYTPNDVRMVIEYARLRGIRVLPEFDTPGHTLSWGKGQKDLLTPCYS
T1 sequence (P07686 315-556 partner limits assumed): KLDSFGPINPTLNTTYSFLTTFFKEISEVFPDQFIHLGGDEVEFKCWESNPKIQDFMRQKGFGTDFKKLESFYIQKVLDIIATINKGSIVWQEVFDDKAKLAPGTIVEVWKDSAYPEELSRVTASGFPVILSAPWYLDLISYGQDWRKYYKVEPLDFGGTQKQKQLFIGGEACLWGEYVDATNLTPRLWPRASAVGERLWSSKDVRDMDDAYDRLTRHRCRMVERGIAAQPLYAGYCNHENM

What is called IC50 is the concentration that gives 50% inhibition. In general, Ki refers to the dissociation constant of the complex between target and ligand, obtained from inhibition or displacement. Turning to `CC(=O)NC1CNC(CO)C(O)C1O` (centres unmarked) [compound 1, 2-acetamido-1,2-dideoxynojirimycin, reference compound], the half-inhibitory concentration (IC50) in assay [1] was determined as 31000 nM. For the same molecule, the inhibition constant Ki in assay [2] was 80000 nM. Take `CC(=O)NC1C(N)C(CO)C(O)C1O` (centres unmarked) [compound 20]: the Ki in assay [3] (25 °C, pH 6.0, competitive inhibition model, read-out: Ki-values with SpHex) was 0.7 nM.

`CC(=O)NC1C(O)C(O)C(CO)C1NCCCCCCNS(=O)(=O)c1cccc2c(N(C)C)cccc12` [compound 25, (1S,2R,3S,4R,5R)-N-(6-Dansylamino)hexyl-3-acetamido-4-amino-5-hydroxymethyl-cyclopentanetriol]: in assay [3], the Ki stood at 0.06 nM. In assay [1], the IC50 worked out at 300 nM.

For `COC(=O)CCCCCNC1C(CO)C(O)C(O)C1NC(C)=O` [compound 22, (1S,2R,3S,4R,5R)-N-(Methoxycarbonyl)pentyl-3-acetamido-4-amino-5-hydroxymethyl-cyclopentanetriol], in assay [3], the inhibition constant Ki is 0.7 nM. As to `CCCCCCNC1C(CO)C(O)C(O)C1NC(C)=O` (centres unmarked) [compound 21], the Ki in assay [3] was found to be 0.6 nM. The IC50 in assay [1] was 880 nM.
